“Also recorded” adds a separate entry of the source. Like-named read-outs stand apart in the source and are kept apart here. Peptide text beside a SMILES is read from it. * marks the point of attachment. Cbz = O=C(OCc1ccccc1)*
Experiments:
[1] = system: MCF-7/HER2 cells; settings: 5-7 days, concentrations approaching 1000 nM; cited from earlier work
[2] = system: MCF-7 cells; settings: 5-7 days, concentrations approaching 1000 nM; cited from earlier work
[3] = system: BT474 cells; settings: 5-7 days, concentrations approaching 1000 nM; cited from earlier work
[4] = system: ERα Ser-118 (67 kD ERα and 52 kD ERα variant); type: cell-based, human; settings: for Ser-118 phosphorylation of ER induced by treatment: MCF-7/T47D cells, charcoal-stripped media, 30 min, menadione 100 μM, estradiol 10 nM, other quinones at equitoxic doses
Method: (§1) Human breast cancer cell lines MCF7 and T47D were obtained from the American Type Culture Collection (ATCC). MCF7 cells were maintained in Dulbecco's Modification of Eagle's Medium (Cellgro) supplemented with 10% fetal bovine serum (Cellgro), 1% penicillin/streptomycin (Cellgro) and 10 μg/ml insulin (Sigma). T47D cells were maintained in RPMI (Cellgro) supplemented with 10% fetal bovine serum, 1% penicillin/streptomycin and 10 μg/ml insulin. Treatment conditions for both cell lines involved plating ˜1×10^6 cells in normal media onto 10 cm dishes, attachment and growth for 24 hours followed by a change to estrogen-free culture conditions (phenol red-free DME H-16 supplemented with 10% charcoal stripped serum, 1% penicillin/streptomycin and 10 μg/ml insulin) for an additional 24 hours. Cells were then treated as indicated for 30 minutes before extract preparation. Indicated conditions involved 30 minute pretreatments.
(§2) Following aspiration of the media and one ice cold PBS wash, cells growing on 10 cm dishes were harvested using a cell scraper and 0.7 ml of ice cold cell lyses buffer ([…], 1.5 mM MgCl2, […] KCl, 1 mM DTT, […] NaFl, 5% glycerol, 0.45% NP40 (Igepal, Sigma) and mincomplete protease inhibitors (Roche)). […] For preparation of high-salt nuclear extracts (nucleoplasm), isolated nuclei were resuspended for 20 minutes in ice cold extraction buffer (0.4 M NaCl, 25 mM Tris pH 7.5, 1 mM DTT, 20% glycerol, 10 mM NaFl and min-complete protease inhibitors (Roche)) followed by a 4° C. centrifugation at 16,000×g for 15 minutes.
(§3) Equal amounts of protein from the various extracts were mixed with 2× SDS sample buffer (125 mM Tris pH6.8, 20% glycerol, 2% SDS, 0.28 M 2-mercaptoethanol and0.5% Bromphenol Blue), heated for 5 minutes at 90° C. and electrophoresed on NuPAGE 4-12% Bis-Tris gels (Invitrogen) using NuPAGE MOPS SDS running buffer (Invitrogen) and full range Rainbow recombinant protein molecular weight markers (Amersham Pharmacia). […] Membranes were then blocked for 30 minutes in blocking buffer (150 mM NaCl, 20 mM Tris pH 7.5, 0.3% Tween-20 and 4% Nonfat dry milk powerby weight).

[5] = system: ERK1/ERK2; assay: MAPK activation: ERK1/ERK2 phosphorylation, Western blot; type: cell-based, human; settings: MCF7 cells; for effect on K3 induced phospho-ERK1/2 formation (MAPK activation): co-treatment with K3
Method: as §1
For preparation of high-salt nuclear extracts (nucleoplasm), isolated nuclei were resuspended for 20 minutes in ice cold extraction buffer (0.4 M NaCl, 25 mM Tris pH 7.5, 1 mM DTT, 20% glycerol, 10 mM NaFl and min-complete protease inhibitors (Roche)) followed by a 4° C. centrifugation at 16,000×g for 15 minutes.
Membranes were then blocked for 30 minutes in blocking buffer (150 mM NaCl, 20 mM Tris pH 7.5, 0.3% Tween-20 and 4% Nonfat dry milk powerby weight).

[6] = system: NFκB; assay: NFκB DNA-binding by EMSA, nuclear extracts of menadione treated MCF-7 cells; type: cell-based, human; settings: 30 min pretreatment: MG-132 25 μM, PS-341 5 μM, PDTC 100 μM, PA 50 μM; then menadione 100 μM 30 min
Method: (§4) PS-341 was kindly provided by Millennium Pharmaceuticals Inc. (Cambridge, Mass.). […] For assessment of combined treatment effects on cell viability, 2×10^4 cells (MCF-7, MCF-7/HER2, BT474) grown in 24-well plates were first treated with tamoxifen (dissolved in ethanol) and/or parthenolide (dissolved in DMSO); for the combination treatment pathenolide was added 4 h before addition of tamoxifen. Cell viability was measured 18 h after tamoxifen treatment using the sulforhodamine B (SRB) assay (Skehan, et al. 1990). Briefly, cells fixed with trichloroacetic acid were stained for 30 min with 0.4% SRB dissolved in 1% acetic acid. Unbound dye was removed by four washes with 1% acetic acid, and protein-bound dye was extracted with 10 mM unbuffered Tris base [tris(hydroxymethyl)aminomethane] for determination of optical density at 564 nm.
(§5) Fractionation of control and treated cells into cytoplasmic and nuclear extracts was performed as previously described (Dignam et al., 1983), with minor modification. Cells harvested on ice were washed twice with cold PBS, scraped and resuspended in 1.0 ml hypotonic buffer (20 mM HEPES, pH 7.0; 10 mM KCl; 1 mM MgCl2; 0.1% Triton X-100; 20% glycerol; 0.5 mM DTT) containing a cocktail of protease inhibitors (Mini CompleteTM protease inhibitors, Roche Diagnostics, Mannheim, Germany). The harvested cells were Dounce homogenized on ice, the mixture centrifuged at 3,000 rpm at 4° C. (5 min), and the cytoplasmic fraction separated from the nuclear pellet which was resuspended in elution buffer (20 mM HEPES, pH 7.0; 10 mM KCl; 1 mM MgCl2; 0.42 M NaCl; 0.1% Triton X-100; 20% glycerol; 0.5 mM DTT), supplemented with protease inhibitors. After 20 min at 4° C. the buffered mixture was centrifuged at 14,000 rpm at 4° C. (10 min) to obtain solubilized nuclear extracts which were then stored in aliquots at −80° C. after protein determination (Bradford; BioRad, Hercules, Calif.) and for subsequent NFkB DNA-binding assays.
NFκB DNA-binding activity was measured by two different techniques. Analogous to previous tumor extract scoring of Sp1 DNA-binding protein (Quong et al., 2002), total specific NFκB DNA-binding protein was determined by electrophoretic morbility shift assay (EMSA) as follows. A duplexed oligonucleotide probe (Promega, Madison, Wis.) with sense strand containing the decameric κB consensus binding sequence (underlined) 5′-[…]-3′(SEQ ID NO:4) was end-labeled with [γ-P32]ATP (PerkinElmer, Boston, Mass.) using T4 polynucleotide kinase (Promega, Madison, Wis.) and purified with G-50 Sephadex Bio-Spin columns (BioRad, Hercules, Calif.). […]

[7] = system: p50 and p65 NFκB subunits; assay: Immunoblot of nuclear p50 and p65 NFκB subunits in MCF-7 cells; type: cell-based, human; settings: MCF-7; MG-132 25 μM, PS-341 5 μM, PDTC 100 μM, PA 50 μM
Method: as §4, §5
Antibodies against p50 NFκB, p65 NFκB, IκB, and β-actin proteins were commercially obtained (Santa Cruz Biotechnology, Santa Cruz, Calif.; and Abcam Inc., Cambridge, Mass.). […]; 4% SDS; 20% glycerol; and 10% 2-mercaptoethanol) and resolved by electrophoresis in 4-12% Bis-Tris SDS gradient gels in morpholinepropane sulfonic acid (MOPS) buffer. Separated proteins were transferred onto polyvinylidene difluoride membranes (Millipore Co., Billerica, Mass.), blocked with 5% non-fat milk in PBS containing 0.1% Tween-20, and membranes immunoblotted with the indicated antibodies in blocking solution. […]

[8] = system: ERα Ser-167 (67 kD ERα and 52 kD ERα variant); type: cell-based, human; settings: for block of K3-induced p-Ser-167 ERα formation: MCF7 cells, co-treatment with K3
Method: as §1, §2, §3

[9] = system: NF-κB p50; assay: NF-κB p50 DNA-binding (TransAM assay); type: cell-based, human; settings: ER-positive cells, 10 μM, 30 min
Method: (§6) Quantitative p50 and p65 NFκB DNA-binding were also determined using ELISA based Trans-AMTM assays in accordance with the manufacturer's instructions (ActiveMotif; Carlsbad, Calif.). In these commercial kits, a duplexed NFκB oligonucleotide containing the same κB consensus sequence described for the EMSA assay above is attached to the surface of 96-well plates. Activated NFκB in tumor or nuclear extracts that is first bound to the attached oligonucleotide is specifically and quantitatively detected by subsequent incubation with p50 or p65 specific antibody followed by an enzyme (HRP)-linked secondary for colorimetric (OD450 nm absorbance) scoring. Standard curves to establish the linear assay range for Trans-AMTM determinations of p50 and p65 NFκB DNA-binding activities were performed using graded amounts of control (IL-1 treated) HeLa cell nuclear extracts (0.625 to 10 μg/well) and for comparison with a panel of nuclear extracts from six human breast cancer cell lines (MCF-7, T47D, BT474, MCF-7/HER2, SkBr3, MDA-231).

[10] = system: NF-κB p65; assay: NF-κB p65 DNA-binding (TransAM assay); type: cell-based, human; settings: ER-positive cells, 10 μM, 30 min
Method: as §6

**Q.** What does the source list for CC/C(=C(\c1ccccc1)c1ccc(OCCN(C)C)cc1)c1ccccc1 [tamoxifen, [Z]-1-[p-dimethylaminoethoxyphenyl]-1,2-diphenyl-1 butene]?
**A.** cellular reductions (viable cell number) [1]: ~25%; reduction in viable cell number [2]: ~50%; cellular reductions (viable cell number) [3]: ~25%

**Q.** With COC1=C(OC)C(=O)c2ccccc2C1=O [DMNQ] as the compound, how does the “Ser-118 phosphorylation of ER induced by treatment” value (“Ser-118 phosphorylation” below) [4] read?
**A.** The value was “no Ser˜118 phosphorylation”.

**Q.** Which “effect on K3 induced phospho-ERK1/2 formation (MAPK activation)” value (“effect” for short) [5] does the source give for N#CC(=C(/N)Sc1ccccc1N)/C(C#N)=C(\N)Sc1ccccc1N [U0126] here?
**A.** The value was “only minimal activation detectable”.

**Q.** For CC(C)C[C@H](NC(=O)[C@H](Cc1ccccc1)NC(=O)c1cnccn1)B(O)O [PS-341], which “inhibition of menadione-induced NFκB DNA-binding / activation” value [6] is on record?
**A.** The value was “complete inhibition; also recorded: completely inhibited”.

**Q.** And the “nuclear p50 and p65 NFκB subunit content, inhibitor pretreatment before menadione” value [7]?
**A.** Its value is “marked reductions”.

**Q.** For C[C@]12CC[C@@H]3c4ccc(O)c(O)c4CC[C@H]3[C@@H]1CCC2=O [4-OHE, 4-hydroxyestrone], which “ERK1/ERK2 phosphorylation induced by treatment” value ([5]; 30 minutes) is on record?
**A.** Its value is “phosphorylating ERK1/2”.

**Q.** What about the “Ser-167 phosphorylation of ERα induced by treatment” value ([8]; MCF7 nuclear extracts, 30 min) of the same compound?
**A.** The value was “induced Ser-118 and Ser-167 phosphorylation of the 52 kD ERα nuclear variant”.

**Q.** What about the “Ser-118 phosphorylation” value [4] of the same compound?
**A.** The value was “induced Ser-118 and Ser-167 phosphorylation of the 52 kD ERα nuclear variant”.

**Q.** With O=C1C=CC(=O)C=C1 [p-benzoquinone] as the compound, how does the “Ser-118 phosphorylation” value [4] read?
**A.** The value was “no Ser˜118 phosphorylation”.

**Q.** Which “inhibition of menadione-induced NFκB DNA-binding / activation” value [6] does the source give for S=C(S)N1CCCC1 [PDTC, pyrrolidine dithiocarbamate] here?
**A.** The value was “complete inhibition”.

**Q.** And the “nuclear p50 and p65 NFκB subunit content, inhibitor pretreatment before menadione” value [7]?
**A.** Its value is “marked reductions”.

**Q.** For O=c1oc2ccccc2c(O)c1Cc1c(O)c2ccccc2oc1=O [dicumarol], which “block of K3-induced p-Ser-167 ERα formation” value [8] is on record?
**A.** Its value is “virtually complete inhibition; also recorded: effectively block”.

**Q.** And the “inhibition of K3-induced p-Ser-118 ERα” value ([4]; MCF7 cells, dicumarol added concurrently with K3)?
**A.** Its value is “at least 75%”.

**Q.** For C[S+]([O-])c1ccc(-c2nc(-c3ccncc3)c(-c3ccc(F)cc3)[nH]2)cc1 (stereo not drawn) [SB203580], which “block of K3-induced p-Ser-167 ERα formation” value [8] is on record?
**A.** The value was “no affect”.

**Q.** Which “effect” value [5] does the source give for CC(=O)N[C@@H](CS)C(=O)O [NAC, N-acetyl cysteine] here?
**A.** Its value is “blocked; also recorded: completely block”.

**Q.** What about the “effect” value ([5]; listed as N-acetyl cysteine) of the same compound?
**A.** The value was “without inhibiting MAPK activity”.

**Q.** And the “block of K3-induced p-Ser-167 ERα formation” value [8]?
**A.** The value was “blocked”.

**Q.** What about the “block of K3-induced p-Ser-167 ERα formation” value ([8]; listed as N-acetyl cysteine) of the same compound?
**A.** Its value is “effectively block”.

**Q.** For CC(C)C[C@@H](C=O)NC(=O)[C@H](CC(C)C)NC(=O)[C@H](CC(C)C)NC(=O)OCc1ccccc1 [MG-132] (Cbz-Leu-Leu-Leu-aldehyde), which “inhibition of menadione-induced NFκB DNA-binding / activation” value [6] is on record?
**A.** Its value is “complete inhibition; also recorded: completely inhibited”.

**Q.** What about the “nuclear p50 and p65 NFκB subunit content, inhibitor pretreatment before menadione” value [7] of the same compound?
**A.** The value was “marked reductions”.

**Q.** And the “decrease in the DNA-binding of p50 subunit” value [9]?
**A.** Its value is 60%.

**Q.** What about the “decrease in the DNA-binding of p65 subunit” value [10] of the same compound?
**A.** Its value is 60%.
